One molecule from patent US10264794B2, “Compositions comprising unsaturated fatty esters and uses thereof” (priority 2013, dated 2019) can be followed below.

This assay has as its system ASTM test fungi. Kind of assay: Agar plate testing. The assay is classed as cell-based. Particulars: agar plates, 14 days at 30 C. The source says:
ASTM test fungi in Petri dishes were subjected to Treatment solutions with and without unsaturated fatty esters (linoleic, oleic, linolenic and arachidonic esters as a 1:1:1:1 ratio). The agar plate test method allowed for rapid determinations of antifungal efficacy against wood-degrading strains of concern. The certified cultures were obtained from the American Type Culture Collection (ATCC) and propagated as per the product information sheets: • Irpex lacteus: ATCC number 11245, yeast medium Difco 0712 (ATCC medium no. 200) • Neolentius lepideus: ATCC number 12653, YM agar Difco 0712 (ATCC medium no. 200) • Postia poria: ATCC number 11538, YM agar Difco 0712 (ATCC medium no. 200) • Pleurotus ostreatus: ATCC number 32237, YM agar Difco 0712 (ATCC medium no. 200) • Trametes versicolor: ATCC number 42462, Hagem's-Modess medium (ATCC medium no. 479) • Gleoephyllum trabeum: ATCC number 11539, Potato Dextrose Agar with 0.5% yeast extract (ATCC medium no. 337)
Each plate was then inoculated in a flame induced sterile environment with a 5 mm diameter agar plug fungal colony of those fungi listed. […] The plates were incubated for 14 days at 30 C and the presence or absence of fungal growth was noted and measured.

Turning to `Oc1c(Cl)c(Cl)c(Cl)c(Cl)c1Cl` [PCP, pentachlorophenol], the growth of fungi entry is “completely inhibited”.
